Patent US20130184302A1, “METHODS FOR TREATING IRRITABLE BOWEL SYNDROME (IBS) AND INFECTIONS” (priority 2011, published 2013)

How the values were obtained:
[1] = test system: patients with non-constipation IBS (non-C IBS); assay: Adequate relief of IBS symptoms and IBS symptom of bloating (weekly SGA, daily measures), rifaximin 550 mg TID 14 days; format: in vivo, human
From the text: A measure of efficacy was based on subjects' answers to the Weekly Subject Global Assessment (SGA) questions over the 4 week study duration in relation to their IBS symptoms. […] The SGA question was asked weekly as follows: “In the past 7 days, have you had adequate relief of your IBS symptom of bloating?” (Yes/No).
The primary efficacy endpoint of the study was the proportion of subjects who achieved adequate relief of IBS symptoms for at least 2 weeks during the first 4 weeks of the 10-week follow-up phase.
Two measures of efficacy were assessed.
Subjects were questioned on the relief of overall IBS symptoms and bloating. […] The analyses defined success as a “yes” response to questions regarding adequate relief.
All subpopulations in the study responded to therapy. Baseline severity was determined during screening for Abdominal Pain/Discomfort and Bloating, and the number, type (normal, hard, loose) and urgency of bowel movements. Duration of effect was assessed in a ten week follow-up period.

[2] = test system: patients with non-constipation IBS (non-C IBS); assay: Stool frequency, rifaximin 550 mg TID study; format: in vivo, human
[3] = Age Group: <65 (N = 281), 550 mg TID
[4] = Gender: Female (N = 226), 550 mg TID
[5] = Gender: Male (N = 85), 550 mg TID
[6] = IBS Subtype: Alternating-predominant, 550 mg TID
[7] = IBS Subtype: Diarrhoea-predominant, 550 mg TID
[8] = Population: ITT (N = 315), 550 mg TID
[9] = Population: PP (N = 311), 550 mg TID
[10] = Population: PP (N = 311), weekly SGA, 550 mg TID
[11] = Race: Non-White (N = 31), 550 mg TID
[12] = Race: White (N = 280), 550 mg TID
[13] = oral rifaximin 550 mg TID 14 days vs subjects not taking rifaximin
[14] = weekly SGA, at least 2 of Weeks 3 through 6, 550 mg TID (N = 315)
[15] = weekly SGA, 550 mg TID (N = 315)

With `CO[C@H]1/C=C/O[C@@]2(C)Oc3c(C)c(O)c4c(O)c(c5c(nc6cc(C)ccn65)c4c3C2=O)NC(=O)/C(C)=C\C=C\[C@H](C)[C@H](O)[C@@H](C)[C@@H](O)[C@@H](C)[C@H](OC(C)=O)[C@@H]1C` [Rifaximin, (2S,16Z,18E,20S,21S,22R, 23R,24R,25S,26S,27S,28E)-5,6,21,23,25 Pentahydroxy-27-methoxy-2,4,11,16,20,22,24,26-octamethyl-2,7-(epoxypentadeca-(1,11,13)trienimino) benzofuro (4,5-e) pyrido(1,2,-a) benzimidazole-1,15(2H)-dione,25-acetate] the “Adequate Relief of IBS symptom of Bloating: Failure” value [1, 3] was 171 (60.9%), the “Adequate Relief of IBS symptom of Bloating: Success” value [1, 3] was 110 (39.1%) and the “Adequate Relief of IBS symptoms: Failure” value [1, 3] was 171 (60.9%). For the same molecule, the “Adequate Relief of IBS symptoms: Success” value [1, 3] was 110 (39.1%), the “Adequate Relief of IBS symptom of Bloating: Failure” value ([1]; Age Group: > = 65, 550 mg TID) was 16 (53.3%) and the “Adequate Relief of IBS symptom of Bloating: Success” value ([1]; Age Group: > = 65, 550 mg TID) was 14 (46.7%). The “Adequate Relief of IBS symptoms: Failure” value ([1]; Age Group: > = 65, 550 mg TID) was 16 (53.3%), the “Adequate Relief of IBS symptoms: Success” value ([1]; Age Group: > = 65, 550 mg TID) was 14 (46.7%) and the “Adequate Relief of IBS symptom of Bloating: Failure” value [1, 4] was 128 (56.6%). For the same molecule, the “Adequate Relief of IBS symptom of Bloating: Success” value [1, 4] was 98 (43.4%), the “Adequate Relief of IBS symptoms: Failure” value [1, 4] was 130 (57.5%) and the “Adequate Relief of IBS symptoms: Success” value [1, 4] was 96 (42.5%). The “Adequate Relief of IBS symptom of Bloating: Failure” value [1, 5] was 59 (69.4%), the “Adequate Relief of IBS symptom of Bloating: Success” value [1, 5] was 26 (30.6%) and the “Adequate Relief of IBS symptoms: Failure” value [1, 5] was 57 (67.1%). The “Adequate Relief of IBS symptoms: Success” value [1, 5] was 28 (32.9%), the “Adequate Relief of IBS symptom of Bloating: Failure” value [1, 6] was 19 (55.9%) and the “Adequate Relief of IBS symptom of Bloating: Success” value [1, 6] was 15 (44.1%). The “Adequate Relief of IBS symptoms: Failure” value [1, 6] was 21 (61.8%), the “Adequate Relief of IBS symptoms: Success” value [1, 6] was 13 (38.2%) and the “Adequate Relief of IBS symptom of Bloating: Failure” value [1, 7] was 168 (60.6%). For the same molecule, the “Adequate Relief of IBS symptom of Bloating: Success” value [1, 7] was 109 (39.4%), the “Adequate Relief of IBS symptoms: Failure” value [1, 7] was 166 (59.9%) and the “Adequate Relief of IBS symptoms: Success” value [1, 7] was 111 (40.1%). For the same molecule, the “Adequate Relief of IBS symptom of Bloating Based on Daily Measures: Failure” value [1, 8] was 182 (57.8%), the “Adequate Relief of IBS symptom of Bloating Based on Daily Measures: Success” value [1, 8] was 133 (42.2%) and the “Adequate Relief of IBS symptoms Based on Daily Measures: Failure” value [1, 8] was 200 (63.5%). The “Adequate Relief of IBS symptoms Based on Daily Measures: Success” value [1, 8] was 115 (36.5%), the “Adequate Relief of IBS symptom of Bloating Based on Daily Measures: Failure” value [1, 9] was 180 (57.9%) and the “Adequate Relief of IBS symptom of Bloating Based on Daily Measures: Success” value [1, 9] was 131 (42.1%). The “Adequate Relief of IBS symptoms Based on Daily Measures: Failure” value [1, 9] was 196 (63.0%), the “Adequate Relief of IBS symptoms Based on Daily Measures: Success” value [1, 9] was 115 (37.0%) and the “Adequate Relief of IBS symptom of Bloating: Failure” value [1, 10] was 187 (60.1%). For the same molecule, the “Adequate Relief of IBS symptom of Bloating: Success” value [1, 10] was 124 (39.9%), the “Adequate Relief of IBS symptoms: Failure” value [1, 10] was 187 (60.1%) and the “Adequate Relief of IBS symptoms: Success” value [1, 10] was 124 (39.9%). For the same molecule, the “Adequate Relief of IBS symptom of Bloating: Failure” value [1, 11] was 17 (54.8%), the “Adequate Relief of IBS symptom of Bloating: Success” value [1, 11] was 14 (45.2%) and the “Adequate Relief of IBS symptoms: Failure” value [1, 11] was 16 (51.6%). The “Adequate Relief of IBS symptoms: Success” value [1, 11] was 15 (48.4%), the “Adequate Relief of IBS symptom of Bloating: Failure” value [1, 12] was 170 (60.7%) and the “Adequate Relief of IBS symptom of Bloating: Success” value [1, 12] was 110 (39.3%). The “Adequate Relief of IBS symptoms: Failure” value [1, 12] was 171 (61.1%), the “Adequate Relief of IBS symptoms: Success” value [1, 12] was 109 (38.9%) and the “Answers to weekly SGA question on adequate relief of IBS symptom of bloating” value [1, 13] was “responded “Yes” more often”. For the same molecule, the “Answers to weekly SGA question on adequate relief of IBS symptoms” value [1, 13] was “responded “Yes” more often”, the “Adequate Relief of IBS symptom of Bloating: Success” value [1, 14] was 125 (39.7%) and the “Adequate Relief of IBS symptoms: Success” value [1, 14] was 125 (39.7%). The “Adequate Relief of IBS symptom of Bloating: Failure” value [1, 15] was 190 (60.3%), the “Adequate Relief of IBS symptoms: Failure” value [1, 15] was 190 (60.3%) and the “% with decrease in SF (stool frequency)” value ([2]; Week 1) was 14.4%. The “% with decrease in SF (stool frequency)” value ([2]; Week 2) was 20.6%, the “% with decrease in SF (stool frequency)” value ([2]; Week 3) was 22.2% and the “% with decrease in SF (stool frequency)” value ([2]; Week 4) was 21.6%. For the same molecule, the “% with decrease in SF (stool frequency)” value ([2]; Week 5) was 25.7% and the “% with decrease in SF (stool frequency)” value ([2]; Week 6) was 22.9%.
